# Laboratory results as given in article PMC9939793 (Infection and Drug Resistance, 2023).
# Tested on: all types and subtypes of influenza tested
# Type: biochemical, influenza virus
# Conditions: peramivir only 2019/20
compound,measurement,value
"CCC(CC)[C@H](NC(C)=O)[C@@H]1[C@H](O)[C@@H](C(=O)O)C[C@H]1N=C(N)N [Peramivir, peramivir]",activity of NAI in the neuraminidase inhibition assay,most potent inhibitor
